For the assay, the system named is SARS-CoV-2. The experiment in a line: microbe, parasite or virus in culture. The settings on record: Severe acute respiratory syndrome coronavirus 2, nCoV-2019 BetaCoV/Wuhan/WIV04/2019, Vero C1008.

The EC50 is the midpoint of the concentration-response curve. High values mean a need for much substance, low ones an effect from little substance. As for `O=C[C@H](C[C@@H]1CCNC1=O)NC(=O)[C@H](Cc1cccc(F)c1)NC(=O)c1cc2ccccc2[nH]1`, the EC50 is 720 nM.

(Values after ChEMBL document CHEMBL4706535, “The development of Coronavirus 3C-Like protease (3CL) inhibitors from 2010 to 2020” (Eur J Med Chem, 2020).)
